The values below come from patent publication US11052162B2, “Liposomal gadolinium (GD) contrast agent “NMRX” for T1-MRI” (TEXAS CHILDREN'S HOSPITAL, priority 2016, dated 2021).

Molecules are shown by their SMILES.

Data set [1] can be described thus: Relaxivity (r1) by variable flip angle technique at 9.4 T. It counts as physicochemical. As for the experimental part:
(§1) While the liposomal contrast agent has slow clearance, Multihance® clears rapidly, and timing the image acquisition is critical. We therefore opted to use the DCE-MRI technique to collect a series of images, from which the optimal time point could be selected. DCE-MRI experiments were performed on a horizontal bore 9.4 T Bruker Avance III, 20 cm bore Biospec Spectrometer (Karlsruhe, Germany) with a micro-imaging probe capable of generating gradients of (1000 mT/m). Prior to the in vivo study, the relaxivity of both agents was measured using the variable flip angle technique described in Appendix A. Similarly, the baseline relaxation rates, T1(O), for placenta and fetus were measured using the same pulse sequence as described in Appendix A.

The nature of data set [2]: Placental and fetal contrast agent concentration and uptake from DCE-MRI data. In kind it is in vivo, mouse. An excerpt: The image data was used to calculate absolute Gd concentrations using the methods in Appendix A. Contrast agent concentrations estimated from the MRI data are shown in Table 2-2 using Eqs. A4 and A5.
For the DCE-MRI study, baseline images without contrast enhancement were acquired, followed by a series of images acquired over time during and after the arrival of the contrast agent in the tissue of interest. A 3D-spoiled gradient recalled echo (SPGRE) pulse sequence with a fixed flip angle of 16 degrees was used over 175 measurements. Other parameters are described in Appendix A. The time for a single measurement was 9.25 seconds. Two minutes into the experiment, contrast was injected. Total scan time was 26 minutes and 52 seconds. The acquired signal was used to generate a time-intensity curve and the signal was converted pixel-by-pixel into concentration of the injected agent.
MRI data was transferred to an offline workstation and each placental and fetal compartment was segmented as a separate region of interest (ROI) using AMIRA V5.6 software (FEI Visualization Sciences Group, Hillsboro, Oreg.). The segmented regions were transferred to Matlab (Matlab 7.6.0, MathWorks, Natick, Mass., USA) to create a pixel-by-pixel T1(0) map and T1(t) map as described in Appendix A. Two placental zones were identified visually from the signal enhancement pattern: the labyrinth zone characterized by early flow enhancement and a peripheral region (maternal decidua) characterized by late flow enhancement that began after the central labyrinth enhancement peaked. The two zones together constitute the entire placenta.

A short description of data set [3]: Gadolinium assay by ICP-MS of placentae and fetuses. It counts as in vivo, mouse. As for the experimental part: (§2) 25 female Balb/c mice (7-9 weeks old; average weight 26 grams before pregnancy) were used in this study. Animals were mated with same strain males. The day when a vaginal copulation plug was detected was designated as day 0.5. Pregnant mice were imaged at day 16.5±1. Mice were sacrificed (under the institutional euthanasia protocol) immediately after MRI data collection (except for two mice that received the liposomal Gd agent, and were maintained alive for 72 hours, allowing additional time for possible transport of Gd to the fetus, and then sacrificed). Mice were dissected and the placentae and fetuses removed and transferred individually to 2 ml polycarbonate vials for storage at −81° C. These placentae and fetuses were analyzed using ICP-MS for the direct measurement of Gd concentration.
Wet tissue from placentae or pups was chopped with a scalpel into ˜3 mm pieces. A known mass of chopped tissue was then dissolved in 2-4 ml of concentrated nitric acid (14N) and heated at 100° C. till tissue completely dissolved. (Usually, about 30-45 minutes at room temperature and 3 minutes at 100° C. were sufficient). The acid solution was diluted with 10 ml of DI water, causing some precipitation of organic material. The material was centrifuged at 3000 g for 5-10 minutes, and the supernatant used for analysis. Serial dilutions over a 10^6 range were then made, and spiked with an internal standard of Bi 10 parts per billion (ppb) in 2% nitric acid. ICP-MS analysis was conducted on a Varian 810 ICP-MS system, using the manufacturer's recommended protocol for Gd assay. A spike-recovery study on blank tissue yielded linear response with >90% recovery over a range of 0-900 ppb and >96% response over a range of 0-50 ppb.

Another data set deals with pregnant Balb/c mice. The experiment in a line: Blinded reader rating of placental visibility in DCE-MRI. It counts as in vivo, mouse. As for the experimental part:
The trans-placental permeability of liposomal gadolinium (Gd) nanoparticle contrast agents was evaluated in a pregnant mouse model. Pregnant Balb/c mice at 16.5 (±1) days of gestation were imaged using a 3D Spoiled Gradient Echo method at 9.4 T using two contrast agents: a clinically approved Gd chelate, Multihance® (gadobenate dimeglumine), and a novel experimental liposomal Gd agent. A Dynamic Contrast Enhancement (DCE) protocol was used to capture the dynamics of contrast entry and distribution in the placenta, and clearance from circulation. A blinded clinical radiologist evaluated both sets of images. A reference region model was used to measure the placental flow and physiological parameters; volume transfer constant (Ktrans), efflux rate constant (Kep). The Gd content of excised placentae and fetuses was measured, using inductively coupled plasma mass spectrometry (ICP-MS). […] Image interpretation and diagnostic quality was equivalent between the two contrast agents.
as §2
Animals were anesthetized with 4% Isofluorane/air and transferred supine to the animal-imaging cradle. A 28-gauge catheter was placed in the tail vein. Once transferred to the imaging instrument, isofluorane (2%) was administered continuously via a nose cone. A pressure sensitive pillow was placed on the abdomen and taped in place to monitor respiration. The animal chamber of the imaging probe was maintained at around 30-33° C. The magnet room was maintained at 25-27° C. Heart rate was maintained at steady 50-60 beats-per-minute by adjusting the airflow and isofluorane concentration. MR imaging was performed with Multihance® in 14 mice. Liposomal Gd was used in 9 mice. Two mice were injected with saline as a control for comparison. Contrast agents were diluted to 20 mM and a dose of 0.08 mmol/kg (typically around 100 μL) were prepared for this study. The contrast agent was injected manually by the same operator (3 years of experience with small animals) and at the same rate in each mouse.
as §1
For the DCE-MRI study, baseline images without contrast enhancement were acquired, followed by a series of images acquired over time during and after the arrival of the contrast agent in the tissue of interest. A 3D-spoiled gradient recalled echo (SPGRE) pulse sequence with a fixed flip angle of 16 degrees was used over 175 measurements. Other parameters are described in Appendix A. The time for a single measurement was 9.25 seconds. […]

Data set [4] relates to pregnant Sprague Dawley rats. The experiment in a line: DCE-MRI visualization of the retroplacental space. It counts as in vivo, rat. Conditions: 0.15 mmol Gd/kg, 20 minute post-contrast acquisition. The method, then: In the study with the conventional Gd contrast agent, dynamic contrast enhanced MRI (DCE-MRI) was performed using gadoterate meglumine (Gd-DOTA, Dotarem®) to evaluate visualization of the retroplacental space. DCE-MRI was performed using a T1w 2D gradient echo sequence (GRE) sequence with the following scan parameters: TE=3.5 ms, TR=15 ms, FA=25, slice thickness=0.8 or 1.6 mm, NEX=12; temporal resolution=47 s. Four non-contrast, baseline images were acquired followed by bolus intravenous administration of gadoterate meglumine (0.15 mmol Gd/kg). Post-contrast imaging was continued for upto 20 minutes after administration of gadoterate meglumine. In order to directly compare image quality between the two contrast agents, liposomal-Gd contrast agent (0.15 mmol Gd/kg) was administered a minimum of three hours later, allowing clearance of gadoterate meglumine. Post-liposomal-Gd contrast images were acquired using the same DCE-MRI protocol.
Pre-contrast and post-contrast scans were reviewed by a trained maternal-fetal radiologist (˜10 years of experience). T1 weighted GRE images and T2 weighted FSE images were included in the review. […] The visibility of target features in T1w and T2w images were scored by the radiologist on a 3-point scale: 0=not visible, 1=partly visible and 2=clearly visible. […]

The mark [5] stands for this setting: placentae rated by blinded reader, 5-point scale, 9.4 T.

Take `CNC[C@H](O)[C@@H](O)[C@H](O)[C@H](O)CO.CNC[C@H](O)[C@@H](O)[C@H](O)[C@H](O)CO.O=C([O-])CN(CCN(CC(=O)[O-])CC(=O)O)CCN(CC(=O)O)C(COCc1ccccc1)C(=O)[O-].[Gd+3]` (stereo not drawn) [Multihance, gadobenate dimeglumine]: in data set [1], the “relaxivity (r1)” value stood at 3.99 ± 0.52 s/mM. Besides, the “uptake of contrast agent in the fetal compartment” value in data set [2] (MRI, liposomal Gd even after 72 hr exposure) is recorded as “uptake of contrast agent in the fetal compartment was observed”. This compound came in with a Placental concentration in data set [2] (gadolinium peak from MRI data, mean, ROI around entire placenta, 0.08 mmol/kg) of 0.60 ± 0.51 µmol/L. Besides, the Fetal concentration in data set [2] (gadolinium peak from MRI data, mean, ROI around fetal sac, 0.08 mmol/kg) worked out at 0.027 ± 0.01 µmol/L. Besides, the “Gd concentration in placentae and fetuses versus detection limit” value in data set [3] (45 minutes and 90 minutes post injection, detection limit 0.318 nmol/g tissue) is “above the detection limit”. Further, the “Placental and fetal Gd concentrations relative to each other” value in data set [3] (45 minutes post-injection) is on record as “within an order of magnitude of each other”. For the same compound, in data set [3] (90 minutes post-injection), the “Placental and fetal Gd concentrations, factor of each other” value was ≤ 2. Also, the transplacental permeation result in data set [3] (MRI images and ICP-MS analyses of placental and fetal tissue) is on record as “avidly permeated the placental barrier”. Besides, in the data set with pregnant Balb/c mice (DCE-MRI), the “time of image intensity peak after injection” value lay within 11 to 15 s. Moreover, in the data set on pregnant Balb/c mice (setting [5]), the “Number observed with Placenta Visibility 1” value is 1, the “Number observed with Placenta Visibility 2” value is on record as 6, the “Number observed with Placenta Visibility 3” value is 25 and the “Number observed with Placenta Visibility 4” value is given as 15. The “Number observed with Placenta Visibility 5” value in the data set on pregnant Balb/c mice (setting [5]) amounted to 7.
In the case of `CNC[C@H](O)[C@@H](O)[C@H](O)[C@H](O)CO.O=C([O-])CN1CCN(CC(=O)[O-])CCN(CC(=O)O)CCN(CC(=O)[O-])CC1.[Gd+3]` [gadoterate meglumine], the “visualization of the retroplacental space” value in data set [4] is “no consistent and reproducible visualization of the retroplacental space”.
